Measured values as given in article PMC8037182, “Solvothermal Synthesis of Multiple Dihydropyrimidinones at a Time as Inhibitors of Eg5” (Molecules, 2021).

System: L929 cell line
Test: Cytotoxicity MTS assay, L929 cell line
Assay type: cell-based
Settings: for OD490 values, Mean / OD490 values, Well 1 / OD490 values, Well 2 / OD490 values, Well 3: L929 cell line; for IC50: MTS assay, 24 h exposure, ordinary fibroblast, not cancer cells
Procedure: The positive compounds (IC50 < 100 μM) obtained from the primary Eg5 motor protein ATPase assay were tested for antiproliferative activity in vitro against Caco-2 cell line, Hela cell line, L929 cell line and T24 cell line by performing MTS assay. Cells were introduced into 96-well plates at a density of 1000 cells per well. After 24 h incubation, the cells were exposed with compounds at final concentrations ranging from 0.5 to 100 µM for 24 h. DMSO was used at a final concentration of 0.025% as blank control, monastrol was used as the positive control. Then 20 µL (CellTiter 96® AQueous One Solution Promega, Madison, WI, USA) reagent was added in each well. After 2 h at 37 °C in a 80% humidified, 5% CO2 atmosphere, the absorbance at 490 nm was recorded using a microplate reader (BIO-RAD iMark^TM). The results were obtained in three independent duplicate experiments. The primary data were shown in Supplementary Materials Tables S4–S7. The IC50 values for these compounds were calculated from a non-linear regression graph plotted between the percentage of cell viability and concentration with SPSS17.0 software.

CCOC(=O)c1[nH]c(C2NC(=O)NC(C)=C2C(=O)Nc2ccc(Cl)cc2)c(C(=O)OCC)c1C (stereo not drawn) [D7]
OD490 values, Mean (0.5μM, first assay): 1.2964 | OD490 values, Well 1 (0.5μM, first assay): 1.2432 | OD490 values, Well 2 (0.5μM, first assay): 1.3324 | OD490 values, Well 3 (0.5μM, first assay): 1.3135 | OD490 values, Mean (0.5μM, second assay): 1.6723 | OD490 values, Well 1 (0.5μM, second assay): 1.6985 | OD490 values, Well 2 (0.5μM, second assay): 1.7484 | OD490 values, Well 3 (0.5μM, second assay): 1.5699 | OD490 values, Mean (0.5μM, third assay): 1.6351 | OD490 values, Well 1 (0.5μM, third assay): 1.6545 | OD490 values, Well 2 (0.5μM, third assay): 1.5521 | OD490 values, Well 3 (0.5μM, third assay): 1.6987 | OD490 values, Mean (1μM, first assay): 1.2921 | OD490 values, Well 1 (1μM, first assay): 1.3838 | OD490 values, Well 2 (1μM, first assay): 1.2582 | OD490 values, Well 3 (1μM, first assay): 1.2343 | OD490 values, Mean (1μM, second assay): 1.6805 | OD490 values, Well 1 (1μM, second assay): 1.6879 | OD490 values, Well 2 (1μM, second assay): 1.6582 | OD490 values, Well 3 (1μM, second assay): 1.6955 | OD490 values, Mean (1μM, third assay): 1.6677 | OD490 values, Well 1 (1μM, third assay): 1.6254 | OD490 values, Well 2 (1μM, third assay): 1.6358 | OD490 values, Well 3 (1μM, third assay): 1.7420 | OD490 values, Mean (10μM, first assay): 1.2890 | OD490 values, Well 1 (10μM, first assay): 1.2982 | OD490 values, Well 2 (10μM, first assay): 1.3257 | OD490 values, Well 3 (10μM, first assay): 1.2432 | OD490 values, Mean (10μM, second assay): 1.6485 | OD490 values, Well 1 (10μM, second assay): 1.6354 | OD490 values, Well 2 (10μM, second assay): 1.6254 | OD490 values, Well 3 (10μM, second assay): 1.6847 | OD490 values, Mean (10μM, third assay): 1.7036 | OD490 values, Well 1 (10μM, third assay): 1.5935 | OD490 values, Well 2 (10μM, third assay): 1.8852 | OD490 values, Well 3 (10μM, third assay): 1.6320 | OD490 values, Mean (25μM, first assay): 1.2098 | OD490 values, Well 1 (25μM, first assay): 1.2509 | OD490 values, Well 2 (25μM, first assay): 1.2839 | OD490 values, Well 3 (25μM, first assay): 1.0945 | OD490 values, Mean (25μM, second assay): 1.5137 | OD490 values, Well 1 (25μM, second assay): 1.4655 | OD490 values, Well 2 (25μM, second assay): 1.5869 | OD490 values, Well 3 (25μM, second assay): 1.4888 | OD490 values, Mean (25μM, third assay): 1.4100 | OD490 values, Well 1 (25μM, third assay): 1.4658 | OD490 values, Well 2 (25μM, third assay): 1.4441 | OD490 values, Well 3 (25μM, third assay): 1.3201 | OD490 values, Mean (50μM, first assay): 1.1393 | OD490 values, Well 1 (50μM, first assay): 1.0255 | OD490 values, Well 2 (50μM, first assay): 1.3097 | OD490 values, Well 3 (50μM, first assay): 1.0826 | OD490 values, Mean (50μM, second assay): 1.3764 | OD490 values, Well 1 (50μM, second assay): 1.3685 | OD490 values, Well 2 (50μM, second assay): 1.3652 | OD490 values, Well 3 (50μM, second assay): 1.3955 | OD490 values, Mean (50μM, third assay): 1.3402 | OD490 values, Well 1 (50μM, third assay): 1.3584 | OD490 values, Well 2 (50μM, third assay): 1.2635 | OD490 values, Well 3 (50μM, third assay): 1.3987 | OD490 values, Mean (100μM, first assay): 0.7147 | OD490 values, Well 1 (100μM, first assay): 0.7427 | OD490 values, Well 2 (100μM, first assay): 0.7798 | OD490 values, Well 3 (100μM, first assay): 0.6215 | OD490 values, Mean (100μM, second assay): 0.8285 | OD490 values, Well 1 (100μM, second assay): 0.8306 | OD490 values, Well 2 (100μM, second assay): 0.7562 | OD490 values, Well 3 (100μM, second assay): 0.8988 | OD490 values, Mean (100μM, third assay): 0.8420 | OD490 values, Well 1 (100μM, third assay): 0.8635 | OD490 values, Well 2 (100μM, third assay): 0.8992 | OD490 values, Well 3 (100μM, third assay): 0.7632 | IC50: 94.7 µM

CCOC(=O)c1c(C2NC(=O)NC(C)=C2C(=O)Nc2ccccc2)[nH]c(C(=O)OC)c1C (stereo not drawn) [D10]
OD490 values, Mean (0.5μM, first assay): 1.1783 | OD490 values, Well 1 (0.5μM, first assay): 1.1608 | OD490 values, Well 2 (0.5μM, first assay): 1.2289 | OD490 values, Well 3 (0.5μM, first assay): 1.1452 | OD490 values, Mean (1μM, first assay): 1.1453 | OD490 values, Well 1 (1μM, first assay): 1.2474 | OD490 values, Well 2 (1μM, first assay): 1.0902 | OD490 values, Well 3 (1μM, first assay): 1.0983 | OD490 values, Mean (10μM, first assay): 1.1621 | OD490 values, Well 1 (10μM, first assay): 1.1874 | OD490 values, Well 2 (10μM, first assay): 1.1922 | OD490 values, Well 3 (10μM, first assay): 1.1066 | OD490 values, Mean (25μM, first assay): 1.1923 | OD490 values, Well 1 (25μM, first assay): 1.1856 | OD490 values, Well 2 (25μM, first assay): 1.2091 | OD490 values, Well 3 (25μM, first assay): 1.1822 | OD490 values, Mean (50μM, first assay): 1.0704 | OD490 values, Well 1 (50μM, first assay): 0.9680 | OD490 values, Well 2 (50μM, first assay): 1.0467 | OD490 values, Well 3 (50μM, first assay): 1.1965 | OD490 values, Mean (100μM, first assay): 0.9201 | OD490 values, Well 1 (100μM, first assay): 0.8725 | OD490 values, Well 2 (100μM, first assay): 0.9125 | OD490 values, Well 3 (100μM, first assay): 0.9752 | IC50: > 150 µM

CCOC(=O)c1[nH]c(C2NC(=S)NC(C)=C2C(=O)OC)c(C(=O)OCC)c1C (stereo not drawn) [D12]
OD490 values, Mean (0.5μM, first assay): 1.1913 | OD490 values, Well 1 (0.5μM, first assay): 1.1038 | OD490 values, Well 2 (0.5μM, first assay): 1.2202 | OD490 values, Well 3 (0.5μM, first assay): 1.2500 | OD490 values, Mean (0.5μM, second assay): 1.4730 | OD490 values, Well 1 (0.5μM, second assay): 1.5380 | OD490 values, Well 2 (0.5μM, second assay): 1.4321 | OD490 values, Well 3 (0.5μM, second assay): 1.4489 | OD490 values, Mean (0.5μM, third assay): 1.5772 | OD490 values, Well 1 (0.5μM, third assay): 1.5471 | OD490 values, Well 2 (0.5μM, third assay): 1.5630 | OD490 values, Well 3 (0.5μM, third assay): 1.6214 | OD490 values, Mean (1μM, first assay): 1.1860 | OD490 values, Well 1 (1μM, first assay): 1.2156 | OD490 values, Well 2 (1μM, first assay): 1.2049 | OD490 values, Well 3 (1μM, first assay): 1.1374 | OD490 values, Mean (1μM, second assay): 1.4734 | OD490 values, Well 1 (1μM, second assay): 1.5248 | OD490 values, Well 2 (1μM, second assay): 1.4852 | OD490 values, Well 3 (1μM, second assay): 1.4101 | OD490 values, Mean (1μM, third assay): 1.5596 | OD490 values, Well 1 (1μM, third assay): 1.5474 | OD490 values, Well 2 (1μM, third assay): 1.5836 | OD490 values, Well 3 (1μM, third assay): 1.5478 | OD490 values, Mean (10μM, first assay): 1.1924 | OD490 values, Well 1 (10μM, first assay): 1.2175 | OD490 values, Well 2 (10μM, first assay): 1.1577 | OD490 values, Well 3 (10μM, first assay): 1.2021 | OD490 values, Mean (10μM, second assay): 1.4056 | OD490 values, Well 1 (10μM, second assay): 1.3665 | OD490 values, Well 2 (10μM, second assay): 1.4252 | OD490 values, Well 3 (10μM, second assay): 1.4252 | OD490 values, Mean (10μM, third assay): 1.6223 | OD490 values, Well 1 (10μM, third assay): 1.6874 | OD490 values, Well 2 (10μM, third assay): 1.5874 | OD490 values, Well 3 (10μM, third assay): 1.5922 | OD490 values, Mean (25μM, first assay): 1.1330 | OD490 values, Well 1 (25μM, first assay): 1.1639 | OD490 values, Well 2 (25μM, first assay): 1.1385 | OD490 values, Well 3 (25μM, first assay): 1.0965 | OD490 values, Mean (25μM, second assay): 1.3592 | OD490 values, Well 1 (25μM, second assay): 1.4632 | OD490 values, Well 2 (25μM, second assay): 1.2302 | OD490 values, Well 3 (25μM, second assay): 1.3841 | OD490 values, Mean (25μM, third assay): 1.5851 | OD490 values, Well 1 (25μM, third assay): 1.5924 | OD490 values, Well 2 (25μM, third assay): 1.5955 | OD490 values, Well 3 (25μM, third assay): 1.5674 | OD490 values, Mean (50μM, first assay): 1.0425 | OD490 values, Well 1 (50μM, first assay): 1.0133 | OD490 values, Well 2 (50μM, first assay): 1.0567 | OD490 values, Well 3 (50μM, first assay): 1.0575 | OD490 values, Mean (50μM, second assay): 1.2636 | OD490 values, Well 1 (50μM, second assay): 1.2147 | OD490 values, Well 2 (50μM, second assay): 1.2548 | OD490 values, Well 3 (50μM, second assay): 1.3214 | OD490 values, Mean (50μM, third assay): 1.3874 | OD490 values, Well 1 (50μM, third assay): 1.3352 | OD490 values, Well 2 (50μM, third assay): 1.3582 | OD490 values, Well 3 (50μM, third assay): 1.4687 | OD490 values, Mean (100μM, first assay): 0.9106 | OD490 values, Well 1 (100μM, first assay): 0.8752 | OD490 values, Well 2 (100μM, first assay): 0.9980 | OD490 values, Well 3 (100μM, first assay): 0.8587 | OD490 values, Mean (100μM, second assay): 1.0255 | OD490 values, Well 1 (100μM, second assay): 0.9632 | OD490 values, Well 2 (100μM, second assay): 1.0012 | OD490 values, Well 3 (100μM, second assay): 1.1122 | OD490 values, Mean (100μM, third assay): 1.3052 | OD490 values, Well 1 (100μM, third assay): 1.3254 | OD490 values, Well 2 (100μM, third assay): 1.2547 | OD490 values, Well 3 (100μM, third assay): 1.3354 | IC50: 121 µM
